Assay results taken from patent US20250098679A1, “HERBICIDAL PYRIDONE DERIVATIVES” (SYNGENTA CROP PROTECTION AG, priority 2021, published 2025).

Key:
Format in all cases: in vivo
Setaria faberi (SETFA) [1] = experiment: Pre-emergence Test, Setaria faberi (SETFA); settings: 1000 g/ha, evaluated after 13 days
[2] = test system: Echinochloa crus-galli (ECHCG); experiment: Pre-emergence Test, Echinochloa crus-galli (ECHCG); settings: evaluated after 13 days
Zea mays (ZEAMX) [3] = experiment: Pre-emergence Test, Zea mays (ZEAMX); settings: evaluated after 13 days
[4] = test system: Ipomoea hederacea (IPOHE); experiment: Pre-emergence Test, Ipomoea hederacea (IPOHE); settings: evaluated after 13 days
Setaria faberi (SETFA) [5] = experiment: Post-emergence Test, Setaria faberi (SETFA); set-up: key to percentage damage caused to the plant, SETFA (five-point scale): 5=81-100%, 4=61-80%, 3=41-60%, 2=21-40%, 1=0-20% damage; settings: evaluated after 13 days
Outline: (§1)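 Tested at 1000 g/ha unless otherwise stated. Plants were held at 24/16 °C day/night with a 14 h light period. Percent damage was read at 13 days and reported in five bands.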

[6] = test system: Echinochloa crus-galli (ECHCG); experiment: Post-emergence Test, Echinochloa crus-galli (ECHCG); set-up: key to percentage damage caused to the plant, ECHCG (five-point scale): 5=81-100%, 4=61-80%, 3=41-60%, 2=21-40%, 1=0-20% damage; settings: evaluated after 13 days
Outline: as §1

Zea mays (ZEAMX) [7] = experiment: Post-emergence Test, Zea mays (ZEAMX); set-up: key to percentage damage caused to the plant, ZEAMX (five-point scale): 5=81-100%, 4=61-80%, 3=41-60%, 2=21-40%, 1=0-20% damage; settings: evaluated after 13 days
Outline: as §1

[8] = test system: Ipomoea hederacea (IPOHE); experiment: Post-emergence Test, Ipomoea hederacea (IPOHE); set-up: key to percentage damage caused to the plant, IPOHE (five-point scale): 5=81-100%, 4=61-80%, 3=41-60%, 2=21-40%, 1=0-20% damage; settings: evaluated after 13 days
Outline: as §1

[9] = test system: Amaranthus palmeri (AMAPA); experiment: Post-emergence Test, Amaranthus palmeri (AMAPA); set-up: key: 5=81-100%, 4=61-80%, 3=41-60%, 2=21-40%, 1=0-20% damage; settings: evaluated after 13 days
Outline: as §1

[10] = test system: Amaranthus retoflexus (AMARE); experiment: Post-emergence Test, Amaranthus retoflexus (AMARE); set-up: key to percentage damage caused to the plant, AMARE (five-point scale): 5=81-100%, 4=61-80%, 3=41-60%, 2=21-40%, 1=0-20% damage; settings: evaluated after 13 days
Outline: as §1

[11] = test system: Amaranthus palmeri (AMAPA); experiment: Pre-emergence Test, Amaranthus palmeri (AMAPA); settings: evaluated after 13 days
[12] = test system: Amaranthus retoflexus (AMARE); experiment: Pre-emergence Test, Amaranthus retoflexus (AMARE); settings: evaluated after 13 days

Row | Structure (SMILES) | Pre-emergence Test ECHCG, percentage damage caused to the plant (five-point scale) ([2]; 1000 g/ha) | Pre-emergence Test ZEAMX, percentage damage caused to the plant (five-point scale) (Zea mays (ZEAMX) [3]; 1000 g/ha) | Pre-emergence Test IPOHE, percentage damage caused to the plant (five-point scale) ([4]; 1000 g/ha) | percentage damage caused to the plant, SETFA (five-point scale) (Setaria faberi (SETFA) [5]; 1000 g/ha) | percentage damage caused to the plant, ECHCG (five-point scale) ([6]; 250 g/Ha) | percentage damage caused to the plant, ZEAMX (five-point scale) (Zea mays (ZEAMX) [7]; 250 g/Ha) | percentage damage caused to the plant, ZEAMX (five-point scale) (Zea mays (ZEAMX) [7]; 1000 g/ha) | percentage damage caused to the plant, IPOHE (five-point scale) ([8]; 250 g/Ha) | percentage damage caused to the plant, IPOHE (five-point scale) ([8]; 1000 g/ha) | percentage damage caused to the plant, AMAPA (five-point scale) ([9]; 250 g/Ha) | percentage damage caused to the plant, AMAPA (five-point scale) ([9]; 1000 g/ha) | percentage damage caused to the plant, AMARE (five-point scale) ([10]; 250 g/Ha) | percentage damage caused to the plant, AMARE (five-point scale) ([10]; 1000 g/ha) | Pre-emergence Test AMAPA, percentage damage caused to the plant (five-point scale) ([11]; 1000 g/ha) | Pre-emergence Test AMARE, percentage damage caused to the plant (five-point scale) ([12]; 1000 g/ha) | Pre-emergence Test ECHCG, percentage damage caused to the plant (five-point scale) ([2]; 250 g/Ha (*)) | Pre-emergence Test ZEAMX, percentage damage caused to the plant (five-point scale) (Zea mays (ZEAMX) [3]; 250 g/Ha (*)) | Pre-emergence Test IPOHE, percentage damage caused to the plant (five-point scale) ([4]; 250 g/Ha (*)) | Pre-emergence Test AMAPA, percentage damage caused to the plant (five-point scale) ([11]; 250 g/Ha (*)) | Pre-emergence Test AMARE, percentage damage caused to the plant (five-point scale) ([12]; 250 g/Ha (*)) | other results
1 | CCn1c(Cn2ncc(Cl)c2C)cc(=O)c(C(=O)O)c1-c1ccc(Cl)c(Cl)c1 [Compound 88, 6-[(4-chloro-5-methyl-pyrazol-1-yl)methyl]-2-(3,4-dichlorophenyl)-1-ethyl-4-oxo-pyridine-3-carboxylic acid] | 3 (3=41-60%) | 1 (1=0-20%) | 2 (2=21-40%) | 4 (4=61-80%) | 3 (3=41-60%) | 0 | 3 (3=41-60%) | 2 (2=21-40%) | 2 (2=21-40%) | 1 (1=0-20%) | 2 (2=21-40%) | 1 (1=0-20%) | 1 (1=0-20%) |  |  |  |  |  |  |  | Pre-emergence Test SETFA, percentage damage caused to the plant (five-point scale) (Setaria faberi (SETFA) [1]): 2 (2=21-40%); percentage damage caused to the plant, SETFA (five-point scale) (Setaria faberi (SETFA) [5]; 250 g/Ha): 0; percentage damage caused to the plant, ECHCG (five-point scale) ([6]; 1000 g/ha): 2 (2=21-40%)
2 | CCn1c(Cn2ccc(C(C)=O)n2)cc(=O)c(C(=O)O)c1-c1ccc(Cl)c(Cl)c1 [Compound 180, 6-[(3-acetylpyrazol-1-yl)methyl]-2-(3,4-dichlorophenyl)-1-ethyl-4-oxo-pyridine-3-carboxylic acid] | 1 (1=0-20%) | 0 | 0 | 1 (1=0-20%) | 1 (1=0-20%) | 0 | 1 (1=0-20%) | 0 | 1 (1=0-20%) | 0 | 0 | 0 | 1 (1=0-20%) | 1 (1=0-20%) | 2 (2=21-40%) |  |  |  |  |  | 
3 | CCn1c(Cn2ccc(OCC(F)(F)F)n2)cc(=O)c(C(=O)O)c1-c1ccc(Cl)c(Cl)c1 [Compound 185, 2-(3,4-dichlorophenyl)-1-ethyl-4-oxo-6-[[3-(2,2,2-trifluoroethoxy)pyrazol-1-yl]methyl]pyridine-3-carboxylic acid] | 5 (5=81-100%) | 3 (3=41-60%) | 3 (3=41-60%) | 4 (4=61-80%) | 3 (3=41-60%) | 1 (1=0-20%) | 4 (4=61-80%) | 3 (3=41-60%) | 3 (3=41-60%) | 1 (1=0-20%) | 3 (3=41-60%) | 1 (1=0-20%) | 3 (3=41-60%) | 2 (2=21-40%) | 3 (3=41-60%) | 1 (1=0-20%) | 0 | 1 (1=0-20%) | 1 (1=0-20%) | 1 (1=0-20%) | 
4 | CCn1c(Cn2ccc(OCC(F)F)n2)cc(=O)c(C(=O)O)c1-c1ccc(Cl)c(Cl)c1 [Compound 165, 2-(3,4-dichlorophenyl)-6-[[3-(2,2-difluoroethoxy)pyrazol-1-yl]methyl]-1-ethyl-4-oxo-pyridine-3-carboxylic acid] | 5 (5=81-100%) | 4 (4=61-80%) | 4 (4=61-80%) | 4 (4=61-80%) | 3 (3=41-60%) | 2 (2=21-40%) | 3 (3=41-60%) | 4 (4=61-80%) | 4 (4=61-80%) | 1 (1=0-20%) | 2 (2=21-40%) | 1 (1=0-20%) | 3 (3=41-60%) | 2 (2=21-40%) | 1 (1=0-20%) | 4 (4=61-80%) | 1 (1=0-20%) | 3 (3=41-60%) | 0 | 0 | 
5 | CCn1c(Cn2ccc(COC)n2)cc(=O)c(C(=O)O)c1-c1ccc(Cl)c(Cl)c1 [Compound 162, 2-(3,4-dichlorophenyl)-1-ethyl-6-[[3-(methoxymethyl)pyrazol-1-yl]methyl]-4-oxo-pyridine-3-carboxylic acid] | 5 (5=81-100%) | 4 (4=61-80%) | 4 (4=61-80%) | 5 (5=81-100%) | 3 (3=41-60%) | 1 (1=0-20%) | 3 (3=41-60%) | 2 (2=21-40%) | 4 (4=61-80%) | 1 (1=0-20%) | 2 (2=21-40%) | 1 (1=0-20%) | 2 (2=21-40%) | 1 (1=0-20%) | 3 (3=41-60%) | 3 (3=41-60%) | 1 (1=0-20%) | 1 (1=0-20%) | 0 | 1 (1=0-20%) | 
